Publication PMC3475186 (Cell, 2012)

Biological target: hTPC2 (TPC2; TPCN2; hTPC2-EGFP) (Homo sapiens, UniProt Q8NHX9)
Experiment: whole-endolysosome patch clamp
Assay type: cell-based

hTPC2 (TPC2; TPCN2; hTPC2-EGFP), sequence (Q8NHX9 whole entry): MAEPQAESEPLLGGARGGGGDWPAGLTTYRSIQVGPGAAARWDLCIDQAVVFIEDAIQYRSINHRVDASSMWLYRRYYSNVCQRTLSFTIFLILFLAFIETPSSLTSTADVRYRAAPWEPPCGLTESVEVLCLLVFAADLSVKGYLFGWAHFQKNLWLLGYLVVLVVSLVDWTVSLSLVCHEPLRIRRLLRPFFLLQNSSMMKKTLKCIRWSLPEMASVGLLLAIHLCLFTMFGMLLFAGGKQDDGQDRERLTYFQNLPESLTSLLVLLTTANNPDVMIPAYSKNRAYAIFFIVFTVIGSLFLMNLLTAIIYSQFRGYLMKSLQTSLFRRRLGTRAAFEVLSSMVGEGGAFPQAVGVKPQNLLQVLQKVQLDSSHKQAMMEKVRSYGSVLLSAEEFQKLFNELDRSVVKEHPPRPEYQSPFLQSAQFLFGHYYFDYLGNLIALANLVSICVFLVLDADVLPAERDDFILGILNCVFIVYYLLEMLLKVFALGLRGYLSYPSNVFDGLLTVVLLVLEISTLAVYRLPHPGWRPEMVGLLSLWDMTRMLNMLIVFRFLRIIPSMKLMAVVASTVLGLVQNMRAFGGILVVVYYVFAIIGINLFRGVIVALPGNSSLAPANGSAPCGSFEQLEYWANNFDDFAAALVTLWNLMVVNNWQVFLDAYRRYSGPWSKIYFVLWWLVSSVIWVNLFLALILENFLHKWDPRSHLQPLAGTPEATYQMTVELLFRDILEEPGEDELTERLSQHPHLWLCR

EC50: 390 ± 94 nM
Compound: CCCCCCCC(=O)OC[C@H](COP(=O)(O)O[C@@H]1[C@H](O)[C@H](OP(=O)(O)O)[C@@H](O)[C@H](OP(=O)(O)O)[C@H]1O)OC(=O)CCCCCCC [diC8 PI(3,5)P2]
